Measured values: US8071780B2, “2-Hydroxymethyl-3,4,5-trihydroxy-1-benzilpiperidine derivatives as inhibitors of glucosylceramide” (Actelion Pharmaceuticals Ltd., priority 2003, dated 2011)

What was measured:
[1] = target: T1, non-lysosomal-β-glucocerebrosidase (Homo sapiens, UniProt Q9HCG7); assay: Inhibition of non-lysosomal-β-glucocerebrosidase; type: biochemical; conditions: whole cell extracts of MCF7 as enzyme source; 5 mM 4-MU β-glucoside; pH 5.8
T1 construct: whole cell extracts of MCF7 (a human breast carcinoma cell line) was used as the source of the enzyme; endogenous in cells; host or cells: MCF7 whole cell extract
T1 sequence (Q9HCG7 1-927): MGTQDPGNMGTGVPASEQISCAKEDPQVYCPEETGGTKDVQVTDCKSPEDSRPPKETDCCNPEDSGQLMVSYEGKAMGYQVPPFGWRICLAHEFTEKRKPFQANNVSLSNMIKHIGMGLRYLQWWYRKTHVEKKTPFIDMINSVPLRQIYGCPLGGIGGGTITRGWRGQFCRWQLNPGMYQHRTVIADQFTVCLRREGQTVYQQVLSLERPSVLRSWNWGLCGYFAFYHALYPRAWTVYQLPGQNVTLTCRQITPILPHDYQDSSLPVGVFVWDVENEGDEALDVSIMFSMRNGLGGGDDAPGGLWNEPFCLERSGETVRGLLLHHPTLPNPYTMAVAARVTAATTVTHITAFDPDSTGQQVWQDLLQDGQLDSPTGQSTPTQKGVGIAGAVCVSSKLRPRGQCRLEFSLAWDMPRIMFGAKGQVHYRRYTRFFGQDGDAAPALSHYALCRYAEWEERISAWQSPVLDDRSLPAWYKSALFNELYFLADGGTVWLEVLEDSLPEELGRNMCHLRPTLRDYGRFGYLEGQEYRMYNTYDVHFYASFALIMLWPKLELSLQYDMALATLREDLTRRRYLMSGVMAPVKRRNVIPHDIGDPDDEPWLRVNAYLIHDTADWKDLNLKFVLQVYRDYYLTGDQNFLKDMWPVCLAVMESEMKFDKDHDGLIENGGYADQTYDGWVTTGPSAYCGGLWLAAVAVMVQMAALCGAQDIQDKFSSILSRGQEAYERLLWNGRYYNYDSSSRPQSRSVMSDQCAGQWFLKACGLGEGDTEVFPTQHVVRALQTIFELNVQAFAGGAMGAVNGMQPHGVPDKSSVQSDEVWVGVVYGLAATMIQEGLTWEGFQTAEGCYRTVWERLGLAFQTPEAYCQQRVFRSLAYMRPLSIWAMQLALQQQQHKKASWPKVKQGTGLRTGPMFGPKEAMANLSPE
Procedure: Inhibition of non-lysosomal-β-glucocerebrosidase
The assay for inhibition of non-lysosomal-β-glucocerebrosidase was essentially carried out as described in Overkleeft, H. S. et al., J. Biol. Chem. (1998) 273, 26522-26527 with the following differences: whole cell extracts of MCF7 (a human breast carcinoma cell line) was used as the source of the enzyme instead of splenic membrane suspensions; 5 mM instead of 3 mM, 4-MU β-glucoside was used as substrate and 0.2M citrate/phosphate (pH 5.8) was used instead of McIlvaine buffer.

human GCS = target: T2, human GCS (Homo sapiens, UniProt Q16739); assay: Cell-based IC50 for GCS inhibition by measuring glucosylceramide (GlcCer) depletion; conditions: MCF-7 cells cultured 5-7 days with compound; GlcCer depletion by HPTLC; read-out: Inhibition of GCS Cellular-based (IC50 μM)
T2 construct: endogenous in cells; host or cells: MCF-7
T2 sequence (Q16739 1-394): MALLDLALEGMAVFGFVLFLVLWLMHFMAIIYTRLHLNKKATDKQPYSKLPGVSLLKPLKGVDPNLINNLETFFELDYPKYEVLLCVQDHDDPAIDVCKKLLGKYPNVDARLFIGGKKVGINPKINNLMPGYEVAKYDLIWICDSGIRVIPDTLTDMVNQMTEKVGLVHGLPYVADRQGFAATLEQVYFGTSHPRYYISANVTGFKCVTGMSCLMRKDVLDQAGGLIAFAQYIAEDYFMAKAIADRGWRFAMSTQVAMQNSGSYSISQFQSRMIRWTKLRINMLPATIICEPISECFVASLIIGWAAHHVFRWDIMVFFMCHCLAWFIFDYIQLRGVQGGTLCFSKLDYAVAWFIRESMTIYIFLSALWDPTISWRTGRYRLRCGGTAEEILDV
Procedure: Estimating the Cell-Based IC50 for GCS Inhibition by Measuring Glucosylceramide (GlcCer) Depletion
Human mammary epithelial cells (MCF-7) were cultured for 5-7 days, with varying concentrations of a compound of the invention to be tested (0; 0.01; 0.05; 0.25; 1.25 and 6.25 μM). The cells were harvested and the total cellular lipids extracted. Neutral glycolipids were separated by partitioning in a DIPE/1-butanol/saline suspension, according to methods well known to those skilled in the art. The neutral glycolipid extracts were then separated by High-Performance Thin Layer Chromatography (HPTLC), using non-polar TLC conditions (chloroform:methanol: 0.2% CaCl2; 65:35:8), according to methods well known to those skilled in the art. GlcCer bands were visualized and the TLC plates were scanned immediately. Scion Image software was then used to quantify GlcCer in the samples relative to a GlcCer standard. This enabled a cell-based IC50 to be calculated for compounds of the invention for GCS inhibition.

[2] = target: T3, human recombinant GCS expressed in insect cells (Homo sapiens, UniProt Q16739); assay: Inhibition of GCS (glucosylceramide synthase); type: biochemical
T3 construct: made in house; host or cells: insect cells
T3 sequence (Q16739 1-394): T2 sequence (Q16739 1-394)
Procedure: The assay for inhibition of GCS was performed essentially as described in Platt et al., J. Biol. Chem., (1994), 269, 27108, the enzyme source being human recombinant GCS expressed in insect cells.

Row | IC50 (human GCS) | Compound | IC50 [1] | IC50 [2]
1 | ~0.015 µM | CCCCCOc1ccc(CN2C[C@H](O)[C@@H](O)[C@H](O)[C@@H]2CO)cc1 [Example 1, 3,4,5-Piperidinetriol, 2-(hydroxymethyl)-1-[(4-pentyloxyphenyl)methyl]-, (2S,3R,4R,5S)] | 0.001 µM | 0.15 µM
2 | – | CCCCOc1ccc(CN2C[C@H](O)[C@@H](O)[C@H](O)[C@@H]2CO)cc1 [Example 2, 3,4,5-Piperidinetriol, 1-[(4-butoxyphenyl)methyl]-2-(hydroxymethyl)-, (2S,3R,4R,5S)] | 0.004 µM | 0.42 µM
